Experimental data published in publication PMC5881531 (FEBS Open Bio, 2018).

Biological target: T1, Dihydroorotate dehydrogenase of Trypanosoma brucei (TbDHODH), FMN-free form (Trypanosoma brucei, UniProt Q57U83, A115V)
T1 construct: gene Tb927.5.3830
Assay: biochemical

T1 sequence (Q57U83 whole entry A115V): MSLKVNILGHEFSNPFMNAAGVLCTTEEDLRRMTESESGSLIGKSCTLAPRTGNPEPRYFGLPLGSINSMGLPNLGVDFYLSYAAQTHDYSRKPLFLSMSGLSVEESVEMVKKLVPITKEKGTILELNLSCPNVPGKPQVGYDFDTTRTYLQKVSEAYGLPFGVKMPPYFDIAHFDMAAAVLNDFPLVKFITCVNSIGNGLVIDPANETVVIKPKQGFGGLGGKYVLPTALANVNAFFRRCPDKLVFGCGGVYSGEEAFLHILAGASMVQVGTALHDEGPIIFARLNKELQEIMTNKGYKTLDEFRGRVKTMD

Structure (SMILES): Cc1cc2nc3c(=O)[nH]c(=O)nc-3n(C[C@H](O)[C@H](O)[C@H](O)COP(=O)(O)O)c2cc1C [FMN]
- Kd: 12 nM
